Test results: the METLIN SMRT retention time set (Domingo-Almenara et al. 2019)

test: gradient 5% acetonitrile 3 min, to 50% in 2 min, to 85% in 15 min, held 3 min, 100 µL/min; details: column: Zorbax Extend-C18 2.1 x 50 mm; eluents: water / acetonitrile, 0.1% formic acid
How it was run: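 The system's dead and dwell volumes were 40 μL and 900 μL, with a Zorbax Extend-C18 column (2.1 × 50 mm, 1.8 μm) run at 100 μL/min in water and acetonitrile containing 0.1% formic acid each. Pure standards were analyzed in mixtures of ~100 molecules by HPLC–quadrupole time-of-flight mass spectrometry in positive and negative ionization mode. Retention time was assigned from computationally picked, manually inspected adduct peaks.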

Structure (SMILES)	RP-LC retention time
CC(C)(C)NC(=O)N1CCCC1c1noc(COc2ccc(F)cc2)n1 (stereo not given)	894 s
O=C(NCc1ccc(F)cc1F)C1CCN(c2ncnc3c2oc2ccccc23)CC1	761 s
CC(C)n1c(=O)sc2cc(S(=O)(=O)N3CCC(C(=O)Nc4ccc(F)cc4)CC3)ccc21	973 s
CCNC(=O)C1CCc2sc(C(=O)N3CCCCCC3)cc2C1 (stereo not given)	748 s
CCCN(C(=O)CC(=O)OC)c1nc(-c2ccc(C)cc2)cs1	1160 s
O=C(CN1C(=O)COc2ccc(C(=O)N3CCCC3)cc21)NCCc1ccc(Cl)cc1	765 s
CC(CCNC(=O)c1cc(S(=O)(=O)N2CCCC2)ccc1Cl)N1CCCC1 (stereo not given)	601 s
CSc1cccc(NC(=O)N2CCN(c3cc(C)nc(N4CCOCC4)n3)CC2)c1	650 s
COc1ccc(N2C(=O)C3N=NN(Cc4nc(-c5ccc(OC(C)C)cc5)no4)C3C2=O)cc1OC (stereo not given)	841 s
CCC1CCCCN1C(=O)CN1CN(c2ccc(C)cc2)c2ncccc2S1(=O)=O (stereo not given)	1030 s
C(=C\c1ccccc1)/CN1CCN(C(c2ccccc2)c2ccccc2)CC1	972 s
CC(C)N1C(=O)C(C)(C(=O)Nc2cccc(Cl)c2)Oc2cccnc21 (stereo not given)	1070 s
COc1ccc(N2CCN(c3ncc(S(=O)(=O)c4ccc(C)c(C)c4)c(N)n3)CC2)cc1	966 s
CCN(CC)C(=O)c1ccccc1NC(=O)c1ccc2c(c1)-c1ccccc1S(=O)(=O)N2CC	992 s
Cc1ccc(N2CCN(Cc3nc(-c4ccc(N5CCSCC5)nc4)no3)CC2)cc1	959 s
COc1ccc(-c2nnc(-c3ccc(C)c(S(N)(=O)=O)c3)o2)cc1OC	731 s
COc1cccc(N2CCN(S(=O)(=O)c3ccsc3C(=O)NCC(C)C)CC2)c1	1000 s
COc1cccc(S(=O)(=O)N2CCC(c3cc(N)on3)CC2)c1	756 s
Cc1cccc(CNC(=O)C2(C)Oc3cccnc3N(C(C)C)C2=O)c1 (stereo not given)	1120 s
Cc1ccc(Cl)cc1N1CCN(C(=O)CCc2nnc3c4cc(-c5ccccc5)nn4ccn23)CC1	999 s
c1cc2c(cc1-c1noc(-c3ccc4c(c3)OCO4)n1)ncn2CCN1CCCC1	634 s
COc1ccc(NC(=O)C2CCN(S(C)(=O)=O)c3cc(C)ccc3O2)cc1 (stereo not given)	872 s

Structure (SMILES)	RP-LC retention time
COc1ccc(-c2noc(Cn3nc(-c4cccc(OC)c4)ccc3=O)n2)cc1	974 s
Cc1ccc(-c2noc(-c3cccc(S(=O)(=O)N4CCN(C)CC4)c3)n2)cc1	735 s
CC(c1ccccc1)N1CC(=O)N(c2cccc(Cl)c2)[C@@H]2CS(=O)(=O)C[C@@H]21 (stereo not given in full)	894 s
CN(C)C(CNS(=O)(=O)c1ccc(Cl)cc1)c1ccccc1 (stereo not given)	652 s
Cn1nnc2cc(-c3noc(C4CC(=O)N(c5cccc(Cl)c5)C4)n3)ccc21 (stereo not given)	864 s
C=CCNC(=O)c1cnn(-c2cc(-c3nc(C4CC4)no3)ccn2)c1C	895 s
O=C(Cn1nc2n(c1=O)CCCC2)Nc1cccc(C(F)(F)F)c1	705 s
CN1CCCCCCN(S(=O)(=O)c2cccc3nsnc23)CCC1=O	783 s
O=C(NCc1ccc(-n2ccnc2)cc1)c1ccccc1C(F)(F)F	610 s
CCCNC(=O)c1nc(N2CCSCC2)c2cnn(C)c2n1	719 s
CC(C)CNC(=O)N1CCN(c2nc3ccccc3n(Cc3ccccc3)c2=O)CC1	986 s
Cc1ccc(-c2nnc(Cc3nc(-c4cccc(C(F)(F)F)c4)no3)o2)cc1F	1180 s
CCCCN1C(=O)C(C)(C(=O)Nc2ccccc2)Oc2cccnc21 (stereo not given)	999 s
COc1ccc(-c2nnc(N3CCC(C(=O)NC4CCCCCC4)CC3)o2)cc1	881 s
Cc1noc(C)c1S(=O)(=O)N1CCC(c2noc(COCC3CC3)n2)CC1	931 s
Cc1cccc(N2CCN(C(=O)c3cc(C4CC4)[nH]n3)CC2)c1C	921 s
Cc1noc2nc(CCC(=O)NCCCN3CCc4ccccc4C3)nc(N3CCC(C)CC3)c12	703 s
CCOc1ccccc1NC(=O)c1cncc(NS(=O)(=O)c2ccc(OC)cc2)c1	798 s
Cc1cccc(-c2nnc(SCc3cc(=O)n4nc(C)sc4n3)o2)c1	782 s
O=C(Cc1ccccc1Cl)N1CCN(S(=O)(=O)C2CC2)CC1	733 s
Cc1nn(CC(=O)NCCCN2CC(C)CC(C)C2)c(=O)c2c1sc1ccccc12 (stereo not given)	691 s
CCOc1ccc(C(Nc2ccccn2)c2ccc3ccc(C)nc3c2O)cc1C (stereo not given)	811 s

Structure (SMILES)	RP-LC retention time
CC(=O)NCCc1csc(C2CCN(C(=O)C3CCCO3)CC2)n1 (stereo not given)	581 s
Cn1nccc1C(=O)Nc1ccsc1-c1nc(-c2ccc(F)cc2)no1	1260 s
O=C1CN(Cc2ccc(F)cc2Cl)CC2(CCCCC2)N1CC1CC1	1330 s
Cc1cccc(NS(=O)(=O)c2cc3c(s2)CCN(C(=O)C2CCC2)C3)c1C	942 s
O=S(=O)(c1ccc(Cl)c(-c2nnc(-c3ccccc3)o2)c1)N1CCN(c2ccccn2)CC1	802 s
Cc1ccc(NC(=O)CSc2nc3nc(C)cc(C)n3n2)cc1	726 s
CCCCN1C(=O)C(C)(C(=O)NCCOC)Oc2cccnc21 (stereo not given)	781 s
O=C(Cn1cnc2nc(N3CCC(C(=O)NC4CC4)CC3)sc2c1=O)NC1CCc2ccccc21 (stereo not given)	670 s
Cc1ccc(-c2nc3cnccn3c2Nc2ccc(Cl)cc2)cc1	1000 s
O=C(NCC1CN(c2ccc3c(c2)OCO3)C(=O)O1)Nc1ccccc1C(F)(F)F (stereo not given)	768 s
Fc1ccc(-c2nnc(Cc3nc(-c4ccc5c(c4)OCO5)no3)o2)cc1	957 s
CCc1ccc(C2=NN(CCC(=O)NC(C)c3ccc4c(c3)OCCO4)C(=O)CC2)cc1 (stereo not given)	832 s
O=C1c2ccccc2C(=O)c2sc(Nc3ccc(Cl)cc3)nc21	1030 s
CCc1nn2c(CNC(=O)c3cc(Cl)ccc3OC)c(C)nc2s1	659 s
COc1ccccc1-c1nc2nccc(-c3ccsc3)n2n1	872 s
CCCCN(C)C(=O)Cn1c(=O)c2cnc(-c3ccccc3)nc2n(C)c1=O	1000 s
CCCN1CCN(C(=O)C2CCN(S(=O)(=O)c3cc(-c4noc(CC)n4)sc3C)CC2)CC1	666 s
Cc1cc(Nc2ccc(F)cc2)nc2nn(Cc3cc(=O)n4ccccc4n3)c(=O)n12	836 s
O=S(=O)(c1cccc(-c2nnc(-c3ccccc3Br)o2)c1)N1CCOCC1	940 s
CCc1noc(NC(C)=O)c1-c1ccc(C)c(S(=O)(=O)N2CCN(c3cc(C)ccc3C)CC2)c1	1130 s
O=C(NCCC1=CCCCC1)C1CCN(C(=O)c2ncn3c2COC(c2ccccc2)C3)CC1 (stereo not given)	820 s
